This experiment can be described thus: Antiinflammatory activity in rabbit neutrophils assessed as inhibition of fMLP-induced superoxide radical anion generation at 20 ug/mL. It is filed as functional. The note with it: Oryctolagus cuniculus, Neutrophil.
Usually inhibition stands for the percentage by which the read-out fell short of the control. For `C=C1CC/C=C(\C)CC[C@@H]2C(C(CC=C(C)C)OC(C)=O)=CO[C@H](OC(C)=O)[C@@H]12` (stereo partly drawn), the inhibition at 20 µg/mL was above 90%.
With `C=C(C)C(CC(OC(C)=O)C1=CO[C@H](OC(C)=O)[C@H]2C(=C)CC[C@@H]3O[C@@]3(C)CC[C@H]12)OC(C)=O` (stereo partly drawn) [7,8-EPOXYZAHAVIN A] the figure was above 90%; with `C=C(C)C(CC(OC(C)=O)C1=CO[C@H](OC(C)=O)[C@H]2C(=C)CC/C=C(\C)CC[C@H]12)OC(C)=O` (stereo partly drawn) [ZAHAVIN A], above 90%.

Source of the values: ChEMBL document CHEMBL1158333, “New diterpenes from the South African soft coral Eleutherobia aurea” (1997).
